According to patent US9675574B2, “Composition comprising a combination of DHA and EPA for administration prior to commencement of chemotherapy” (Fresenius Kabi Deutschland GmbH, priority 2010, dated 2017):

Assays:
[1] = tested on: colorectal cancer cell lines, breast cancer cell lines and lung cancer cell lines; assay: Clonogenicity experiment with further tumor cell lines, pre- versus posttreatment (Example 7); format: cell-based; conditions: irradiation
Protocol: The experiment is carried out analogously with further tumor cell lines (colorectal cancer cell lines, breast cancer cell lines and lung cancer cell lines).

[2] = tested on: HT-29 colorectal cancer cells; assay: 15-day clonogenicity experiment, pretreatment before irradiation (Example 6); format: cell-based, human; conditions: 48 h pretreatment with 20 μM to 100 μM, irradiation 2 to 6 Gy
Protocol: (§1) HT-29 colorectal cancer cells (ATCC number HTB-38) were cultured in Dulbecco's Modified Eagle's Medium (DMEM, product number D 5030, Sigma Chemie AG, Buchs, Switzerland) supplemented with 10% heat-inactivated fetal calf serum (FBS), 1 g/L D-glucose, 3.7 g/L sodium bicarbonate and 0.1 g/L penicillin-streptomycin (all additives from Life Technologies Inc., Grand Island, N.Y.). The cells were cultured at 37° C. in a humidified atmosphere with a 5% CO2 content and kept in the exponential growth phase by twice weekly subculturing. The cultures were tested for mycoplasma infection using the MycoAlert Detection Kit (product number LT07-118, Cambrex, Verviers, Belgium).
The cytotoxic effect of a two-day (48 hours) pretreatment of HT-29 cells with 0 μM, 20 μM, 50 μM or 100 μM DHA or EPA on irradiation of the cells at 0 Gy, 2 Gy, 4 Gy or 6 Gy was examined in a 15-day clonogenicity experiment.
To this end, the culture medium of the cells was replaced with medium which contained the relevant concentrations (0 μM, 20 μM, 50 μM or 100 μM) of DHA or EPA. Controls were cultured in medium without EPA and without DHA. […] The cells were then detached from the culture vessel by means of trypsinization (1× trypsin-EDTA, Life Technologies Inc., Grand Island, N.Y.), resuspended and counted. […] The surviving cell fraction was calculated with reference to the untreated controls (S/S0).

HT-29 = assay: 15-day clonogenicity experiment, treatment prior to versus after irradiation (Example 7); format: cell-based, human; conditions: treatment prior to irradiation (A) versus untreated controls (C) and treatment after irradiation (B); for formation of colonies: 20-100 μM, 48 h
Protocol: as §1, with “Human” for “HT-29 colorectal”, “cell lines (HT-29; ATCC” for “cells (ATCC”, “are” for “were”, “NY).” for “N.Y.).”
The cytotoxic effect of treatment of the cells with DHA, EPA, MCTs and iron on irradiation of the cells at 0 Gy, 2 Gy, 4 Gy or 6 Gy is examined in a 15-day clonogenicity experiment.
Firstly, the influence of 0 μM, 20 μM, 50 μM or 100 μM DHA or EPA in the case of treatment of the cells (A) prior to the irradiation compared to the treatment of the cells after the irradiation (B) is determined. Cells untreated with EPA or DHA, which are also irradiated, serve as a control (C).
In the case of the cells which are treated with EPA or DHA prior to the irradiation (A), the culture medium of the cells is replaced with medium containing the relevant concentrations (0 μM, 20 μM, 50 μM or 100 μM) of DHA or EPA. The cells are cultured for 48 hours in the medium, and then irradiated with an individual radiation dose of 0 Gy (control), 2 Gy, 4 Gy or 6 Gy in an X-ray 6 MV instrument.
In the case of cells which are treated with EPA or DHA after the irradiation (B) and in the case of the control cells (C), a media change is carried out 48 hours prior to the irradiation; the cells receive normal culture medium. After 48 hours, the cells are irradiated with an individual radiation dose of 0 Gy (control), 2 Gy, 4 Gy or 6 Gy in an X-ray 6 MV instrument.
After the irradiation, the cells are then detached from the culture vessel by means of trypsinization (1× trypsin-EDTA, Life Technologies Inc., Grand Island, NY), resuspended and counted. The cells are subsequently serially diluted according to a standard protocol and seeded in 100×20 mm cell culture dishes containing 10 mL of medium in a cell count which leads to the formation of about 200 colonies. Cells of groups A and C are seeded in normal culture medium, and cells of group B are seeded in medium containing the relevant concentrations (0 μM, 20 μM, 50 μM or 100 μM) of DHA or EPA.
After 48 hours, all cells are subjected to a media change, after which all cells are cultured in normal culture medium.
After a total of 14 days of incubation at 37° C., the vessels are washed with phosphate-buffered saline (PBS, Life Technologies Inc., Grand Island, N.Y.), fixed, and stained with a 0.5% crystal violet solution in methanol/glacial acetic acid (3:1, v/v). The surviving cell fraction is calculated with reference to the untreated controls (S/S0).

Row | Compound | cytotoxic effect of pretreatment compared to posttreatment [1] | effect on survival of HT-29 cells in combination with irradiation [2] | size of colonies formed (HT-29) | surviving cell fraction (S/S0) (HT-29) | formation of colonies (HT-29)
1 | CC/C=C\C/C=C\C/C=C\C/C=C\C/C=C\C/C=C\CCC(=O)O [DHA, (4Z,7Z,10Z,13Z,16Z,19Z)-docosa-4,7,10,13,16,19-hexaenoic acid] | greater cytotoxic effect | synergistic effect | colonies formed are smaller | also smaller | fewer colonies
2 | CC/C=C\C/C=C\C/C=C\C/C=C\C/C=C\CCCC(=O)O [EPA, (5Z,8Z,11Z,14Z,17Z)-eicosa-5,8,11,14,17-pentaenoic acid] | greater cytotoxic effect | synergistic effect | colonies formed are smaller | also smaller | fewer colonies
